# Test results taken from ChEMBL document CHEMBL5303573, “Mapping human microbiome drug metabolism by gut bacteria and their genes” (Nature, 2019).
# Key:
# [1] = bacteroides stercoris, 12 h, 2 µM
# Description: The drug is tested on Bacteroides stercoris strain: ATCC43183 for biotransformation. The drug concentrations were measured before and after a 12-h incubation by liquid-chromatography-coupled mass spectrometry (LC–MS)
# [2] = parabacteroides johnsonii, 12 h, 2 µM
# Description: The drug is tested on Parabacteroides johnsonii strain: DSM18315 for biotransformation. The drug concentrations were measured before and after a 12-h incubation by liquid-chromatography-coupled mass spectrometry (LC–MS)
# [3] = The drug is tested on Ruminococcus gnavus strain: ATCC29149 for biotransformation. The drug concentrations were measured before and after a 12-h incubation by liquid-chromatography-coupled mass spectrometry (LC–MS); conditions: mediterraneibacter gnavus, 2 µM
# [4] = The drug is tested on Bacteroides finegoldii strain: DSM17565 for biotransformation. The drug concentrations were measured before and after a 12-h incubation by liquid-chromatography-coupled mass spectrometry (LC–MS); conditions: 2 µM
# [5] = The drug is tested on Edwardsiella tarda strain: ATCC23685 for biotransformation. The drug concentrations were measured before and after a 12-h incubation by liquid-chromatography-coupled mass spectrometry (LC–MS); conditions: 2 µM
# [6] = The drug is tested on Clostridium scindens strain: ATCC35704 for biotransformation. The drug concentrations were measured before and after a 12-h incubation by liquid-chromatography-coupled mass spectrometry (LC–MS); conditions: 2 µM
# [7] = The drug is tested on Dorea formicigenerans strain: ATCC27755 for biotransformation. The drug concentrations were measured before and after a 12-h incubation by liquid-chromatography-coupled mass spectrometry (LC–MS); conditions: 2 µM
# [8] = bacteroides thetaiotaomicron, 12 h, 2 µM
# Description: The drug is tested on Bacteroides thetaiotaomicron strain: VPI-5482 for biotransformation. The drug concentrations were measured before and after a 12-h incubation by liquid-chromatography-coupled mass spectrometry (LC–MS)
# [9] = The drug is tested on Bacteroides sp. WH2 strain: WH2 for biotransformation. The drug concentrations were measured before and after a 12-h incubation by liquid-chromatography-coupled mass spectrometry (LC–MS); conditions: bacteroides sp. wh2, 12 h, 2 µM
# [10] = bacteroides thetaiotaomicron, 12 h, 2 µM; remark: listed apart in the source
# Description: The drug is tested on Bacteroides thetaiotaomicron strain: 7330 for biotransformation. The drug concentrations were measured before and after a 12-h incubation by liquid-chromatography-coupled mass spectrometry (LC–MS)
# [11] = limosilactobacillus reuteri cf48-3a, 12 h, 2 µM
# Description: The drug is tested on Lactobacillus reuteri CF48-3A strain: BEI HM-102 for biotransformation. The drug concentrations were measured before and after a 12-h incubation by liquid-chromatography-coupled mass spectrometry (LC–MS)
# [12] = The drug is tested on Enterococcus faecalis strain: V583 for biotransformation. The drug concentrations were measured before and after a 12-h incubation by liquid-chromatography-coupled mass spectrometry (LC–MS); conditions: 2 µM
# [13] = The drug is tested on Blautia hansenii strain: DSM20583 for biotransformation. The drug concentrations were measured before and after a 12-h incubation by liquid-chromatography-coupled mass spectrometry (LC–MS); conditions: 2 µM
# [14] = The drug is tested on Odoribacter splanchnicus strain: fecal isolate for biotransformation. The drug concentrations were measured before and after a 12-h incubation by liquid-chromatography-coupled mass spectrometry (LC–MS); conditions: 2 µM
# [15] = bacteroides fragilis, 12 h, 2 µM
# Description: The drug is tested on Bacteroides fragilis strain: DS-208 for biotransformation. The drug concentrations were measured before and after a 12-h incubation by liquid-chromatography-coupled mass spectrometry (LC–MS)
# [16] = The drug is tested on Collinsella aerofaciens strain: ATCC25986 for biotransformation. The drug concentrations were measured before and after a 12-h incubation by liquid-chromatography-coupled mass spectrometry (LC–MS); conditions: 2 µM
# [17] = The drug is tested on Bacteroides ovatus strain: ATCC8483 for biotransformation. The drug concentrations were measured before and after a 12-h incubation by liquid-chromatography-coupled mass spectrometry (LC–MS); conditions: 2 µM
# [18] = The drug is tested on Bacteroides caccae strain: ATCC43185 for biotransformation. The drug concentrations were measured before and after a 12-h incubation by liquid-chromatography-coupled mass spectrometry (LC–MS); conditions: 2 µM
# [19] = The drug is tested on Bacteroides vulgatus strain: ATCC8482 for biotransformation. The drug concentrations were measured before and after a 12-h incubation by liquid-chromatography-coupled mass spectrometry (LC–MS); conditions: phocaeicola vulgatus, 2 µM
# [20] = The drug is tested on Bifidobacterium breve strain: DSM20213 for biotransformation. The drug concentrations were measured before and after a 12-h incubation by liquid-chromatography-coupled mass spectrometry (LC–MS); conditions: 2 µM
SMILES,Bacterial Biotransformation [1],Bacterial Biotransformation [2],Bacterial Biotransformation [3],Bacterial Biotransformation [4],Bacterial Biotransformation [5],Bacterial Biotransformation [6],Bacterial Biotransformation [7],Bacterial Biotransformation [8],Bacterial Biotransformation [9],Bacterial Biotransformation [10],Bacterial Biotransformation [11],Bacterial Biotransformation [12],Bacterial Biotransformation [13],Bacterial Biotransformation [14],Bacterial Biotransformation [15],Bacterial Biotransformation [16],Bacterial Biotransformation [17],Bacterial Biotransformation [18],Bacterial Biotransformation [19],Bacterial Biotransformation [20]
CC(=O)OCC(=O)[C@@]1(O)[C@@H](C)C[C@H]2[C@@H]3CCC4=CC(=O)C=C[C@]4(C)[C@@]3(F)[C@@H](O)C[C@@]21C [BETAMETHASONE ACETATE],Compound metabolized,Compound metabolized,Compound NOT metabolized,Compound NOT metabolized,Compound NOT metabolized,Compound NOT metabolized,Compound NOT metabolized,Compound metabolized,Compound NOT metabolized,Compound metabolized,Compound NOT metabolized,Compound NOT metabolized,Compound metabolized,Compound metabolized,Compound metabolized,,,,,
CC(O)(CS(=O)(=O)c1ccc(F)cc1)C(=O)Nc1ccc(C#N)c(C(F)(F)F)c1 (centres undefined) [BICALUTAMIDE],Compound NOT metabolized,Compound NOT metabolized,Compound NOT metabolized,Compound NOT metabolized,Compound NOT metabolized,Compound NOT metabolized,Compound NOT metabolized,Compound NOT metabolized,Compound NOT metabolized,Compound NOT metabolized,Compound NOT metabolized,Compound NOT metabolized,Compound NOT metabolized,Compound metabolized,Compound NOT metabolized,Compound NOT metabolized,Compound NOT metabolized,Compound NOT metabolized,,
O=C1CC2(CCCC2)CC(=O)N1CCCCN1CCN(c2ncccn2)CC1 [BUSPIRONE],Compound NOT metabolized,Compound NOT metabolized,Compound NOT metabolized,Compound NOT metabolized,Compound NOT metabolized,Compound NOT metabolized,Compound NOT metabolized,Compound NOT metabolized,Compound NOT metabolized,Compound NOT metabolized,Compound NOT metabolized,Compound NOT metabolized,Compound NOT metabolized,,Compound NOT metabolized,Compound NOT metabolized,Compound NOT metabolized,Compound NOT metabolized,,
CCc1cccc2c3c([nH]c12)C(CC)(CC(=O)O)OCC3 (centres undefined) [ETODOLAC],Compound NOT metabolized,Compound NOT metabolized,Compound NOT metabolized,Compound NOT metabolized,Compound NOT metabolized,Compound NOT metabolized,Compound NOT metabolized,Compound metabolized,Compound NOT metabolized,Compound metabolized,Compound NOT metabolized,Compound NOT metabolized,Compound NOT metabolized,Compound metabolized,Compound metabolized,Compound NOT metabolized,Compound NOT metabolized,Compound NOT metabolized,,
OCCOCCN1CCN(C2=Nc3ccccc3Sc3ccccc32)CC1 [QUETIAPINE],Compound NOT metabolized,,Compound NOT metabolized,Compound NOT metabolized,Compound NOT metabolized,Compound NOT metabolized,Compound NOT metabolized,,Compound NOT metabolized,Compound NOT metabolized,Compound NOT metabolized,,Compound NOT metabolized,Compound NOT metabolized,Compound NOT metabolized,Compound NOT metabolized,Compound NOT metabolized,Compound NOT metabolized,Compound NOT metabolized,Compound NOT metabolized
O=C(O)CCC(=O)O.O=C(O[C@H]1CN2CCC1CC2)N1CCc2ccccc2[C@@H]1c1ccccc1 [SOLIFENACIN SUCCINATE],Compound NOT metabolized,Compound NOT metabolized,Compound NOT metabolized,Compound NOT metabolized,Compound NOT metabolized,Compound NOT metabolized,Compound NOT metabolized,,Compound NOT metabolized,Compound NOT metabolized,Compound NOT metabolized,Compound NOT metabolized,Compound NOT metabolized,Compound NOT metabolized,Compound NOT metabolized,Compound NOT metabolized,Compound NOT metabolized,Compound NOT metabolized,,Compound NOT metabolized
OC(CCN1CCCCC1)(c1ccccc1)C1CCCCC1 (centres undefined) [TRIHEXYPHENIDYL],,Compound NOT metabolized,Compound NOT metabolized,Compound NOT metabolized,Compound NOT metabolized,Compound NOT metabolized,Compound NOT metabolized,Compound NOT metabolized,Compound NOT metabolized,,Compound NOT metabolized,Compound NOT metabolized,Compound metabolized,,Compound NOT metabolized,Compound NOT metabolized,Compound NOT metabolized,Compound NOT metabolized,,Compound NOT metabolized
CCOC(=O)C1=C[C@]2(CC)CCCN3CCc4c(n1c1ccccc41)[C@@H]32 [VINPOCETINE],Compound NOT metabolized,,Compound NOT metabolized,Compound NOT metabolized,Compound NOT metabolized,Compound NOT metabolized,Compound NOT metabolized,Compound NOT metabolized,Compound NOT metabolized,Compound NOT metabolized,Compound NOT metabolized,Compound NOT metabolized,Compound metabolized,Compound NOT metabolized,Compound NOT metabolized,Compound NOT metabolized,Compound NOT metabolized,Compound NOT metabolized,Compound NOT metabolized,Compound NOT metabolized
Cc1ccc(-c2nc3ccc(C)cn3c2CC(=O)N(C)C)cc1 [ZOLPIDEM],Compound NOT metabolized,,Compound NOT metabolized,Compound NOT metabolized,Compound NOT metabolized,,Compound NOT metabolized,,Compound NOT metabolized,Compound NOT metabolized,Compound NOT metabolized,Compound NOT metabolized,Compound NOT metabolized,Compound NOT metabolized,Compound NOT metabolized,Compound NOT metabolized,,Compound NOT metabolized,Compound NOT metabolized,Compound NOT metabolized
